Assay results taken from patent publication EP2818472A1, “Imidazo[4,5-c]pyridine and pyrrolo[3,2-c]pyridine compounds as G-protein-coupled receptor kinase 5 (GRK5) modulators” (Max-Planck-Gesellschaft zur Förderung der Wissenschaften …, priority 2013, dated 2014).

Each molecule was assayed on beta-TC6 cells (assay: Insulin HTRF assay (relative activity Ar) in beta-TC6 cells). Details: Mus musculus, Beta-TC6, 4 h, insulin HTRF, supernatant of beta-TC6 cells, incubation with test compound at 37°C for 2, 3, 4h; read-out: Ar (relative activity).
Type: cell-based, mouse
Source text: For further screening of compounds derived from compounds described above for their ability to regulate insulin release an insulin HTRF® (Homogeneous Time-Resolved Fluorescence; Cisbio International, France) was used. This assay is based on two antibodies against insulin binding to different epitopes of insulin. One of these antibodies is coupled to Europium (Ab-Eu-Cryptate) and the other one to the fluorophore XL665 (Ab-XL665). If the insulin is secreted into the supernatant of cell culture, both antibodies can bind to insulin and come therefore into close proximity, which allows upon excitation that energy transfer between (FRET) the long-life fluorescent donor Europium (cryptate) and the acceptors XL665. FRET increases proportionally with insulin concentration.
The automated assay protocol is as follows: • On day 1, 15k beta-TC6 cells per well were seeded for 24 or 48 h in 50 µL complete medium. On day 2 or respective on day 3, the medium is removed and cells are washed with 60 µL 1xPBS and 20 µL induction buffer is added using BioTek washer. Subsequently, 10 µL Sunitininb (5 -µM f.c.) or the test compound in induction buffer; 0.5% f.c. DMSO (CyBi-well) is transferred to the cells. The cells are then incubated at 37°C for 2, 3, 4h.
First 10 µL supernatant is transferred from the cell plates in HTRF plates (CyBi-well). 10 µL of 0, 1, 2, and 4 ng/ml insulin standard controls in assay medium is used as a control. To each well 10 µL of combined 1:25 Ab-XL665 (Acc) and 1:20 Ab-Eu-Cryptate (WellMate) are added and incubated for 120 min at RT in the dark. Finally HTRF is measured on ViewLux ultra high throughput microplate imager (PerkinElmer).
The evaluation software DataFactoty derives relative activities Ar according to the following equation: Ar = (V-R(0%control))/(R(100%control) -R0%control)) × 100 [formula]
The activity of the compounds was classified according to their Ar (relative activity) into the following ranges: […]
With `COc1ccc(Nc2cc3[nH]c(-c4cccc(N)c4)cc3cn2)cn1` [Compound 1, 2-(3-aminophenyl)-N-(6-methoxy-3-pyridyl)-1H-pyrrolo[3,2-c]pyridin-6-amine] the Emax was 50 to 100%. For `Nc1cccc(-c2cc3cnc(Nc4cccnc4)cc3[nH]2)c1` [Compound 2, 2-(3-aminophenyl)-N-(3-pyridyl)-1H-pyrrolo[3,2-c]pyridin-6-amine], the Emax was 30 to 50%. `CN1CCN(c2cc3[nH]c(-c4cccc(C(F)(F)F)c4)cc3cn2)CC1` [Compound 4, 6-(4-methylpiperazin-1-yl)-2-[3-(trifluoromethyl)phenyl]-1H-pyrrolo[3,2-c]pyridine] showed an Emax of 30 to 50%. In the case of `CS(=O)(=O)Nc1cccc(Nc2cc3[nH]c(-c4cccc(C(F)(F)F)c4)cc3cn2)c1` [Compound 5, N-[3-[[2-[3-(trifluoromethyl)phenyl]-1H-pyrrolo[3,2-c]pyridin-6-yl]amino]phenyl]methanesulfonamide], the Emax is reported as 0 to 30%. `COc1ccc(Nc2cc3[nH]c(-c4cccc(F)c4)cc3cn2)cc1OC` [Compound 7, N-(3,4-dimethoxyphenyl)-2-(3-fluorophenyl)-1H-pyrrolo[3,2-c]pyridin-6-amine] was tested, and the Emax was 50 to 100%. Molecule `COc1ccc(Nc2cc3[nH]c(-c4cccc(F)c4)cc3cn2)cn1` [Compound 8, 2-(3-fluorophenyl)-N-(6-methoxy-3-pyridyl)-1H-pyrrolo[3,2-c]pyridin-6-amine] has an Emax of 30 to 50%. In the case of `Fc1cccc(-c2cc3cnc(Nc4ccc(F)c(Cl)c4)cc3[nH]2)c1` [Compound 9, N-(3-chloro-4-fluoro-phenyl)-2-(3-fluorophenyl)-1H-pyrrolo[3,2-c]pyridin-6-amine], the Emax is reported as 0 to 30%. With `Oc1cccc(Nc2cc3[nH]c(-c4cccc(F)c4)cc3cn2)c1` [Compound 10, 3-[[2-(3-fluorophenyl)-1H-pyrrolo[3,2-c]pyridin-6-yl]amino]phenol] the Emax was 50 to 100%. With `COc1ccc(Nc2cc3[nH]c(-c4cccc(F)c4)cc3cn2)cc1O` [Compound 11, 5-[[2-(3-fluorophenyl)-1H-pyrrolo[3,2-c]pyridin-6-yl]amino]-2-methoxy-phenol] the Emax was 30 to 50%. With `Fc1cccc(-c2cc3cnc(N4CCOCC4)cc3[nH]2)c1` [Compound 12, 4-[2-(3-fluorophenyl)-1H-pyrrolo[3,2-c]pyridin-6-yl]morpholine] the Emax was > 100%. In the case of `CS(=O)(=O)Nc1cccc(Nc2cc3[nH]c(-c4cccc(F)c4)cc3cn2)c1` [Compound 13, N-[3-[[2-(3-fluorophenyl)-1H-pyrrolo[3,2-c]pyridin-6-yl]amino]phenyl]methanesulfonamide], the Emax is reported as 50 to 100%. For `CN(C)C(=O)c1ccc(Nc2cc3[nH]c(-c4cccc(F)c4)cc3cn2)cc1` [Compound 14, 4-[[2-(3-fluorophenyl)-1H-pyrrolo[3,2-c]pyridin-6-yl]amino]-N,N-dimethyl-benzamide], the Emax was 30 to 50%. In the case of `CC(=O)Nc1cccc(Nc2cc3[nH]c(-c4cccc(F)c4)cc3cn2)c1` [Compound 15, N-[3-[[2-(3-fluorophenyl)-1H-pyrrolo[3,2-c]pyridin-6-yl]amino]phenyl]acetamide], the Emax is reported as 30 to 50%. For `CS(=O)(=O)c1ccc(Nc2cc3[nH]c(-c4cccc(F)c4)cc3cn2)cc1` [Compound 16, 2-(3-fluorophenyl)-N-(4-methylsulfonylphenyl)-1H-pyrrolo[3,2-c]pyridin-6-amine], the Emax was 30 to 50%. `Cn1c(-c2cccc(F)c2)cc2cnc(Nc3ccc(O)cc3)cc21` [Compound 17, 4-[[2-(3-fluorophenyl)-1-methyl-pyrrolo[3,2-c]pyridin-6-yl]amino]phenol] showed an Emax of 50 to 100%. Work on `COc1cc(Nc2cc3[nH]c(-c4ccc(C(=O)N(C)C)cc4)cc3cn2)cc(OC)c1OC` [Compound 18, N,N-dimethyl-4-[6-(3,4,5-trimethoxyanilino)-1H-pyrrolo[3,2-c]pyridin-2-yl]benzamide] yielded an Emax of 50 to 100%. `COc1cccc(Nc2cc3[nH]c(-c4ccc(C(=O)N(C)C)cc4)cc3cn2)c1` [Compound 19, 4-[6-(3-methoxyanilino)-1H-pyrrolo[3,2-c]pyridin-2-yl]-N,N-dimethyl-benzamide] showed an Emax of 50 to 100%.
